Assay results reported in patent USRE42700E1, “Induction of apoptosis in cancer cells” (Sanford-Burnham Medical Research Institute, priority 2001, dated 2011).
Each block holds one compound with its values, some of them ahead of it. Peptide text beside a SMILES is read from it. * marks the point of attachment. Cbz = O=C(OCc1ccccc1)*; CH2F = FC*

Assays:
[1] = tested on: Bcl-XL in leukemic cells; experiment: Bcl-XL cleavage by Western blot; format: cell-based, human; conditions: 50 μM inhibitor with 1 μM 3-Cl-AHPC, 24 hours
Description: (§1) Western Blots: Western blots were performed according to the protocol of Sheikh, M. S., et al., (Oncogene, 9: 3407-3415 (1994)). Logarithmically growing cells were treated with 3-Cl-AHPC for various times and cells were harvested and lysed in Laemmli lysis buffer (0.5 M Tris-HCl, pH 6.8, 0.002M EDTA, 10% glycerol, 10% sodium dodecyl sulfate (SDS), and 5% β-mercaptoethanol). Protein lysates (50 μg/lane) were electrophoresed on 12% SDS-polyacrylamide gels and transferred to nitrocellulose membranes. Membranes were blocked with 5% nonfat dried milk in PBS/0.5% Tween 20 and then incubated with the appropriate antibodies. Horseradish peroxidase-conjugated rabbit anti-mouse IgG was used as the secondary antibody, and bands were developed using the Amersham ECL non-radioactive method.

[2] = tested on: ERK, p38 and JNK kinases in M07e and patient leukemic cells; experiment: activation of MAPK pathways (phospho-p38, phospho-ERK, phospho-JNK Western blots); format: cell-based, human; conditions: 50 μM inhibitor
Description: as §1

[3] = tested on: Human Breast Cancer Cells; experiment: apoptosis induction / cell death in breast cancer cells (all lines); format: cell-based; conditions: 10 μM
[4] = tested on: human acute megakaryocytic leukemia cell line M07e; experiment: M07e cell growth / proliferation; format: cell-based; conditions: varying concentrations over time
Description: (§2) Cell Growth: IL-3-transfected M07e cells have been described by Thacker, D. J., et al., Leukemia 8: 871-877 (1994). Cells were grown in RPMI supplemented with 5 percent heat-inactivated fetal bovine serum (FBS) and 25 μg/ml gentamycin in a […], 5% CO2, and 100% humidity environment. Leukemic cells were obtained from patients who met the criteria for the diagnosis of AML or CML in blast crisis (see Table 1). Studies were approved by the Wayne State University Institutional Review Board. Informed consent was obtained from all patients. Leukemic blasts from patients were isolated using Ficoll hypaque. Cells at the interface between plasma and red blood cells were diluted with sterile PBS, then layered over Ficoll hypaque (1.077 density), and the leukemic cells collected at the interface. The sample to be studied represented greater than 90% blasts. The patient leukemia samples were grown in RPMI medium supplemented with 10% FBS, gentamycin (25 μg/ml), IL-3 (20 ng/ml), SCF (25 ng/ml), GM-CSF (20 ng/ml) and G-CSF (20 ng/ml). Cell growth was assessed using a cell proliferation kit.

[5] = tested on: acute promyelocytic leukemia (APL); conditions: cited from earlier work
[6] = tested on: human acute megakaryocytic leukemia cell line M07e; experiment: M07e apoptosis quantification; format: cell-based
Description: (§3) Apoptosis Quantification: Staining of apoptotic cells was performed as described by Gavreli, Y., et al., (J. Cell. Biol. 119: 493-501 (1992)) and Whitacre, C. M., et al., (Cancer Res. 55: 3697-3701 (1995)). After 3-Cl-AHPC treatment, cells were harvested, washed with PBS and resuspended at 1×10^6 cells/ml. Cell suspensions (50 μl) were stained with […] of acridine orange solution ([…]) in PBS in the dark. Cells displaying fragmented DNA were detected using a fluorescent microscope. Apoptotic cells were also detected using a kit. Cells that incorporated fluorescein labeled deoxyuridine triphosphate were detected using flow cytometry.

[7] = tested on: leukemic blasts from patients (AML or CML in blast crisis); experiment: apoptosis in primary cultures of patient leukemic blasts; format: cell-based, human
Description: as §2, §3

[8] = target: RAR subtype α (Homo sapiens, UniProt P10276); conditions: cited from earlier work
[9] = target: RARβ (Homo sapiens, UniProt P10826); conditions: 1 μM; cited from earlier work
[10] = tested on: cell line K562; conditions: cited from earlier work
[11] = tested on: human leukemia cell line HL-60R; conditions: cited from earlier work
[12] = tested on: mouse mammary adenocarcinoma 16/C; experiment: mouse mammary adenocarcinoma 16/C in syngeneic female C3H mice
Description: The ability of 3-Cl-AHPC to inhibit the in vivo growth of breast carcinoma cells was tested using syngeneic mouse mammary and human breast adenocarcinoma SCID xenograft models.

[13] = tested on: ALL cells obtained from patients; conditions: background section; cited from earlier work
[14] = tested on: p38 and JNK kinases (HL-60R human leukemia cell line); conditions: cited from earlier work
[15] = tested on: cell line ALL-REH; conditions: ALL-REH cells; cited from earlier work
[16] = target: RARγ (Homo sapiens, UniProt P13631); conditions: 1 μM; cited from earlier work
[17] = tested on: RXRs; conditions: cited from earlier work
[18] = tested on: AML cells; experiment: growth of AML cells in SCID mice; format: in vivo, mouse
[19] = tested on: M07e or patient leukemia cells; experiment: effect of kinase inhibitors on 3-Cl-AHPC-mediated apoptosis; format: cell-based, human; conditions: at concentrations inhibiting p38 or ERK activation
Description: After 3-Cl-AHPC treatment, cells were harvested, washed with PBS and resuspended at 1×10^6 cells/ml. Cell suspensions (50 μl) were stained with 5 ml of acridine orange solution (100 mg/ml) in PBS in the dark. Cells displaying fragmented DNA were detected using a fluorescent microscope. Apoptotic cells were also detected using a kit. Cells that incorporated fluorescein labeled deoxyuridine triphosphate were detected using flow cytometry.

[20] = total dose 133 mg/kg, days 1, 2, 5-9
[21] = total dose 150 mg/kg, days 1, 2, 7-9

Sequence of RAR subtype α (P10276 whole entry): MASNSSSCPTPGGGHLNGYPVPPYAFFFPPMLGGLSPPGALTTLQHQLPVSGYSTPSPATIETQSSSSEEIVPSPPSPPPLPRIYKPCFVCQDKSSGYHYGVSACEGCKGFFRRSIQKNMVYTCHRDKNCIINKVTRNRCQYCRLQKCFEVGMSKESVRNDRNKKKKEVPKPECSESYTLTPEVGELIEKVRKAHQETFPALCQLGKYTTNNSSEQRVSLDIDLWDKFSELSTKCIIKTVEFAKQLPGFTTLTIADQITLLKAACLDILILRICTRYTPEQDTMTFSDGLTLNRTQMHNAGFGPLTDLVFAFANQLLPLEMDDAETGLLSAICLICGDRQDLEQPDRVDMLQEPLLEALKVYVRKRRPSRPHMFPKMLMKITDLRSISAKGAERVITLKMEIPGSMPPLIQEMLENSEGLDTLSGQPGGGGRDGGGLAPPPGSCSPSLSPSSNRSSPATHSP
Sequence of RARγ (P13631 whole entry, species assumed): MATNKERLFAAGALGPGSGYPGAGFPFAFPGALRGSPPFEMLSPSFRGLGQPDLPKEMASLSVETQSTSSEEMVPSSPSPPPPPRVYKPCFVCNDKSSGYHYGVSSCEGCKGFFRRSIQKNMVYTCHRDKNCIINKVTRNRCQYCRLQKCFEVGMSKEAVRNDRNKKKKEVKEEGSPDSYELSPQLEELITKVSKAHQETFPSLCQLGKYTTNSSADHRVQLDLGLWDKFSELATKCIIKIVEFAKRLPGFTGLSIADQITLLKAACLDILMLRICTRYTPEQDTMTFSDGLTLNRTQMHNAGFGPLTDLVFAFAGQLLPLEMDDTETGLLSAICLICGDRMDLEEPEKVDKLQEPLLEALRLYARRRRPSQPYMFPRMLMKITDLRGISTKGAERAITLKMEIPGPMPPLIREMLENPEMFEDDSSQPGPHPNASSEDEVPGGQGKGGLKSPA
Sequence of RARβ (P10826 whole entry, species assumed): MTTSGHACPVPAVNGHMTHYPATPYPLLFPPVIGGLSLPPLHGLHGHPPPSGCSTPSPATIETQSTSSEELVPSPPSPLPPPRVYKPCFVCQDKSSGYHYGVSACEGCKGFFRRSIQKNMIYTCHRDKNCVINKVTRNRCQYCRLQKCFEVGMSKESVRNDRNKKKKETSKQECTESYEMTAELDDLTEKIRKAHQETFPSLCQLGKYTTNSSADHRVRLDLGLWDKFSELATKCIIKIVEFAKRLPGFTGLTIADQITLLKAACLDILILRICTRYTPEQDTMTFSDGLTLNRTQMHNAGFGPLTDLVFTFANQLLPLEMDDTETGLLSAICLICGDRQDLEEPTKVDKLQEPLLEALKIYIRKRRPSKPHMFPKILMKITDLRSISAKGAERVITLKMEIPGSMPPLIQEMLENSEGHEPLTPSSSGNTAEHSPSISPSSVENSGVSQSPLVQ

Structure (SMILES): COC(=O)C[C@H](NC(=O)[C@H](C)NC(=O)[C@@H](NC(=O)OCc1ccccc1)C(C)C)C(=O)CF [ZVAD-fmk] (Cbz-Val-Ala-Asp(OMe)-CH2F)
- effect on 3-Cl-AHPC-mediated Bcl-XL cleavage [1]: inhibited Bcl-XL cleavage
- effect on 3-Cl-AHPC activation of JNK [2]: not inhibited
- effect on 3-Cl-AHPC activation of p38 and ERK [2]: prevent their activation by 3-Cl-AHPC

- melting point: 127 to 129 °C
Structure (SMILES): Cc1cc(/C=C/C(=O)O)cc(C)c1-c1ccc(O)c(C23CC4CC(CC(C4)C2)C3)c1 [Example 4, (E)-4-[3-(1-Adamantyl)-4-hydroxyphenyl]-3,5-dimethylcinnamic acid]

- melting point: 276 to 278 °C
Structure (SMILES): O=C(O)/C=C/c1ccc(-c2ccc(O)c(C34CC5CC(CC(C5)C3)C4)c2)cc1Cl [Example 2, (E)-4-[3-(1-Adamantyl)-4-hydroxyphenyl]-2-chlorocinnamic acid]

Structure (SMILES): CC1=C(/C=C/C(C)=C/C=C/C(C)=C/C(=O)O)C(C)(C)CCC1 [tRA, trans-retinoic acid, reference compound]
- killing of breast carcinoma cells [3]: did not kill the cells
- inhibition of proliferation [4]: did not significantly inhibit M07e proliferation
- patients achieving a complete remission [5]: 90%
- inhibition of proliferation [6]: did not significantly inhibit M07e proliferation (FIG. 2C) or induce apoptosis
- induction of apoptosis ([7]; 1 μM, 11 primary cultures): did not induce apoptosis
- proliferation and apoptosis of primary human AML cultures (FIG. 13) ([7]; non-APL AML samples): had no effect

Structure (SMILES): O=C(O)c1ccc2cc(-c3ccc(O)c(C45CC6CC(CC(C6)C4)C5)c3)ccc2c1 [AHPN, 6-[3-(1-adamantyl)-4-hydroxyphenyl]-2-naphthalenecarboxylic acid]
- binding and transactivation of RAR subtype α [8]: extremely poor binder and transactivator
- binding and transactivation of RARβ [9]: binds and transactivates
- apoptosis of K562 cells (resistant to tRA) [10]: results in apoptosis
- apoptosis of HL-60R cells (lack functional RARs) [11]: results in apoptosis
- % body wt. loss ([12]; total dose 99 mg/kg, days 1-9): −4%
- Drug deaths ([12]; total dose 99 mg/kg, days 1-9): 0/5
- T/C % ([12]; total dose 99 mg/kg, days 1-9): 47%
- % body wt. loss [12, 20]: −11%
- Drug deaths [12, 20]: 0/5
- Log cell kill [12, 20]: 0.49
- T/C % [12, 20]: 39%
- % body wt. loss [12, 21]: −21%
- Drug deaths [12, 21]: 1/5
- Log cell kill [12, 21]: 0.63
- T/C % [12, 21]: 30%
- apoptosis of ALL cells obtained from patients [13]: induced apoptosis
- p38 and JNK activation ([14]; HL-60R human leukemia cell line): p38 and JNK activation
- time to activation of the p38 and JNK kinases [14]: ≤ 1 h
- caspase 3 activity [15]: stimulation of caspase 3 activity
- binding and transactivation of RARγ [16]: binds and transactivates
- binding to the RXRs [17]: does not bind
- treated mice tumor-free more than 150 days (considered cured) ([18]; five treated mice): one out of the five
- Tumor growth inhibition ([18]; treated SCID mice): 85.7%
- growth delay ([18]; treated SCID mice): 21 days
- log cell kill ([18]; treated SCID mice): 2.1

Structure (SMILES): COc1cccc(-c2cc(=O)c3ccccc3o2)c1N [PD98059]
- effect on 3-Cl-AHPC-mediated apoptosis [19]: did not inhibit or enhance 3-Cl-AHPC-mediated apoptosis

- melting point: 232 to 234 °C
Structure (SMILES): Cc1cc(/C=C/C(=O)O)ccc1-c1ccc(O)c(C23CC4CC(CC(C4)C2)C3)c1 [Example 3, (E)-4-[3-(1-Adamantyl)-4-hydroxyphenyl]-3-methylcinnamic acid]
